According to patent US6969702B2, “Compounds and methods for increasing neurogenesis” (priority 2002, dated 2005):
pEC50: −log10 of the molar value. Ends that are not written are not given here.

Tests used:
[1] = test system: newborn cells (BrdU positive) in sub ventricular zone and dentate gyrus; experiment: In vivo progenitor cell proliferation (BrdU); set-up: species or system Wistar rats; settings: 10 mg/kg intraperitoneally twice daily 7 days with BrdU
neural stem cells = experiment: In vitro proliferation measured with ATP (Example 14); type: cell-based; set-up: cell proliferation (ATP), fold the level of control cells: dose or concentration left out as unconfirmed
Procedure: To determine proliferation, neurospheres were split and seeded in Neurosphere medium as single cells in 96-well plates, at 10,000 cells/well. The following experiment was performed in sets of four parallel experiments (i.e., performed in quadruplicate) such that the cells may be used for different assays. Substances to be tested were added and cells were incubated at 37° C. for 4 days. Cells were lysed with 0.1 % Triton-X100 in Tris-EDTA buffer. Intracellular ATP was measured using an ATP-SL kit according to the manufacturer's instructions (BioThema, Sweden).

[2] = test system: adenylate cyclase in UMR 106-06 cells; settings: relative to sCT; cited from earlier work
[3] = target: dipeptidyl peptidase-IV (DPP-VI) (Homo sapiens, UniProt P27487); settings: in mammals; cited from earlier work
dipeptidyl peptidase-IV (DPP-VI), sequence (P27487 whole entry, species assumed): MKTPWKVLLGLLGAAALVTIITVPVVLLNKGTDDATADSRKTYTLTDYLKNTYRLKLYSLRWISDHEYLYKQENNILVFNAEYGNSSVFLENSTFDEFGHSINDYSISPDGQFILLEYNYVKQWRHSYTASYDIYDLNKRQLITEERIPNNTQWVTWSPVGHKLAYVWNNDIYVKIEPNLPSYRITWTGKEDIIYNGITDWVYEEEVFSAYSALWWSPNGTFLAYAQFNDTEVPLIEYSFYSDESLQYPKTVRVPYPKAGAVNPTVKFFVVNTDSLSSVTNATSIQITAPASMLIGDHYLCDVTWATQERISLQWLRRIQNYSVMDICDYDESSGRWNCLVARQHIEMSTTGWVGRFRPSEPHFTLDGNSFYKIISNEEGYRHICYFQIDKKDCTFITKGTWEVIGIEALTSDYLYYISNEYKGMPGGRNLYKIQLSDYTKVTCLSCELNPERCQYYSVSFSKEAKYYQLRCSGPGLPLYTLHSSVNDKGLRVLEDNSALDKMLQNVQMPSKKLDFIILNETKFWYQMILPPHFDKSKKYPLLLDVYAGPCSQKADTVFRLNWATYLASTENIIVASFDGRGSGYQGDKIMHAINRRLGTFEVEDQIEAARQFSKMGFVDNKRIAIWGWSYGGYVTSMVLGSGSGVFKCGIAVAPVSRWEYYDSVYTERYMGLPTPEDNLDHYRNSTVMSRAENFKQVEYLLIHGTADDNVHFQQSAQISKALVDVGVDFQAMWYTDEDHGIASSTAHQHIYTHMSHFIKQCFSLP

## CC[C@H](C)[C@H](NC(=O)[C@H](C)NC(=O)[C@@H](NC(=O)[C@H](CCC(N)=O)NC(=O)[C@@H]1CCCN1C(=O)[C@H](Cc1ccccc1)NC(=O)[C@@H](NC(=O)[C@H](Cc1c[nH]cn1)NC(=O)[C@H](Cc1ccccc1)NC(=O)[C@H](CCCCN)NC(=O)[C@H](CC(N)=O)NC(=O)[C@H](Cc1ccccc1)NC(=O)[C@H](CC(=O)O)NC(=O)[C@H](CCC(N)=O)NC(=O)[C@@H](NC(=O)[C@H](Cc1ccc(O)cc1)NC(=O)[C@@H](NC(=O)CNC(=O)[C@H](CC(C)C)NC(=O)[C@H](CCSC)NC(=O)[C@@H]1CSSC[C@H](N)C(=O)NCC(=O)N[C@@H](CC(N)=O)C(=O)N[C@@H](CC(C)C)C(=O)N[C@@H](CO)C(=O)N[C@@H]([C@@H](C)O)C(=O)N1)[C@@H](C)O)[C@@H](C)O)[C@@H](C)O)[C@@H](C)O)C(=O)NCC(=O)N[C@H](C(=O)NCC(=O)N[C@@H](C)C(=O)N1CCC[C@H]1C(N)=O)C(C)C [calcitonin]
[1]
  number of newborn cells (BrdU positive compared to sham injected): significant increase
Neural stem cells; 4 days
  cell proliferation (ATP), fold the level of control cells: 2.5 fold
Neural stem cells; neural stem cell cultures, read-out: EC50 value (proliferation dose-response curve, FIG. 3)
  pEC50: 10.52

## CSNLSTCVLGRLSKDLHRLQTFPRTNTGAGVP (cysteine pairing not given here) [[Arg11, 18, Lys14]-sCT]
[2]
  potency in activating adenylate cyclase: equivalent to that of sCT

## His-Asp-Glu-Phe-Glu-Arg-His-Ala-Glu-Gly-Thr-Phe-Thr-Ser-Asp-Val-Ser-Ser-Tyr-Leu-Glu-Gly-Gln-Ala-Ala-Lys-Glu-Phe-Ile-Ala-Trp-Leu-Val-Lys-Gly-Arg-Gly [GLP-1]
[3]
  halftime of degradation: less than 2 min
